Biological target: HCV RdRp (NS5B) (UniProt P26663)
Type: biochemical, hepatitis C virus

Chain of HCV RdRp (NS5B) (P26663 whole entry, looked up): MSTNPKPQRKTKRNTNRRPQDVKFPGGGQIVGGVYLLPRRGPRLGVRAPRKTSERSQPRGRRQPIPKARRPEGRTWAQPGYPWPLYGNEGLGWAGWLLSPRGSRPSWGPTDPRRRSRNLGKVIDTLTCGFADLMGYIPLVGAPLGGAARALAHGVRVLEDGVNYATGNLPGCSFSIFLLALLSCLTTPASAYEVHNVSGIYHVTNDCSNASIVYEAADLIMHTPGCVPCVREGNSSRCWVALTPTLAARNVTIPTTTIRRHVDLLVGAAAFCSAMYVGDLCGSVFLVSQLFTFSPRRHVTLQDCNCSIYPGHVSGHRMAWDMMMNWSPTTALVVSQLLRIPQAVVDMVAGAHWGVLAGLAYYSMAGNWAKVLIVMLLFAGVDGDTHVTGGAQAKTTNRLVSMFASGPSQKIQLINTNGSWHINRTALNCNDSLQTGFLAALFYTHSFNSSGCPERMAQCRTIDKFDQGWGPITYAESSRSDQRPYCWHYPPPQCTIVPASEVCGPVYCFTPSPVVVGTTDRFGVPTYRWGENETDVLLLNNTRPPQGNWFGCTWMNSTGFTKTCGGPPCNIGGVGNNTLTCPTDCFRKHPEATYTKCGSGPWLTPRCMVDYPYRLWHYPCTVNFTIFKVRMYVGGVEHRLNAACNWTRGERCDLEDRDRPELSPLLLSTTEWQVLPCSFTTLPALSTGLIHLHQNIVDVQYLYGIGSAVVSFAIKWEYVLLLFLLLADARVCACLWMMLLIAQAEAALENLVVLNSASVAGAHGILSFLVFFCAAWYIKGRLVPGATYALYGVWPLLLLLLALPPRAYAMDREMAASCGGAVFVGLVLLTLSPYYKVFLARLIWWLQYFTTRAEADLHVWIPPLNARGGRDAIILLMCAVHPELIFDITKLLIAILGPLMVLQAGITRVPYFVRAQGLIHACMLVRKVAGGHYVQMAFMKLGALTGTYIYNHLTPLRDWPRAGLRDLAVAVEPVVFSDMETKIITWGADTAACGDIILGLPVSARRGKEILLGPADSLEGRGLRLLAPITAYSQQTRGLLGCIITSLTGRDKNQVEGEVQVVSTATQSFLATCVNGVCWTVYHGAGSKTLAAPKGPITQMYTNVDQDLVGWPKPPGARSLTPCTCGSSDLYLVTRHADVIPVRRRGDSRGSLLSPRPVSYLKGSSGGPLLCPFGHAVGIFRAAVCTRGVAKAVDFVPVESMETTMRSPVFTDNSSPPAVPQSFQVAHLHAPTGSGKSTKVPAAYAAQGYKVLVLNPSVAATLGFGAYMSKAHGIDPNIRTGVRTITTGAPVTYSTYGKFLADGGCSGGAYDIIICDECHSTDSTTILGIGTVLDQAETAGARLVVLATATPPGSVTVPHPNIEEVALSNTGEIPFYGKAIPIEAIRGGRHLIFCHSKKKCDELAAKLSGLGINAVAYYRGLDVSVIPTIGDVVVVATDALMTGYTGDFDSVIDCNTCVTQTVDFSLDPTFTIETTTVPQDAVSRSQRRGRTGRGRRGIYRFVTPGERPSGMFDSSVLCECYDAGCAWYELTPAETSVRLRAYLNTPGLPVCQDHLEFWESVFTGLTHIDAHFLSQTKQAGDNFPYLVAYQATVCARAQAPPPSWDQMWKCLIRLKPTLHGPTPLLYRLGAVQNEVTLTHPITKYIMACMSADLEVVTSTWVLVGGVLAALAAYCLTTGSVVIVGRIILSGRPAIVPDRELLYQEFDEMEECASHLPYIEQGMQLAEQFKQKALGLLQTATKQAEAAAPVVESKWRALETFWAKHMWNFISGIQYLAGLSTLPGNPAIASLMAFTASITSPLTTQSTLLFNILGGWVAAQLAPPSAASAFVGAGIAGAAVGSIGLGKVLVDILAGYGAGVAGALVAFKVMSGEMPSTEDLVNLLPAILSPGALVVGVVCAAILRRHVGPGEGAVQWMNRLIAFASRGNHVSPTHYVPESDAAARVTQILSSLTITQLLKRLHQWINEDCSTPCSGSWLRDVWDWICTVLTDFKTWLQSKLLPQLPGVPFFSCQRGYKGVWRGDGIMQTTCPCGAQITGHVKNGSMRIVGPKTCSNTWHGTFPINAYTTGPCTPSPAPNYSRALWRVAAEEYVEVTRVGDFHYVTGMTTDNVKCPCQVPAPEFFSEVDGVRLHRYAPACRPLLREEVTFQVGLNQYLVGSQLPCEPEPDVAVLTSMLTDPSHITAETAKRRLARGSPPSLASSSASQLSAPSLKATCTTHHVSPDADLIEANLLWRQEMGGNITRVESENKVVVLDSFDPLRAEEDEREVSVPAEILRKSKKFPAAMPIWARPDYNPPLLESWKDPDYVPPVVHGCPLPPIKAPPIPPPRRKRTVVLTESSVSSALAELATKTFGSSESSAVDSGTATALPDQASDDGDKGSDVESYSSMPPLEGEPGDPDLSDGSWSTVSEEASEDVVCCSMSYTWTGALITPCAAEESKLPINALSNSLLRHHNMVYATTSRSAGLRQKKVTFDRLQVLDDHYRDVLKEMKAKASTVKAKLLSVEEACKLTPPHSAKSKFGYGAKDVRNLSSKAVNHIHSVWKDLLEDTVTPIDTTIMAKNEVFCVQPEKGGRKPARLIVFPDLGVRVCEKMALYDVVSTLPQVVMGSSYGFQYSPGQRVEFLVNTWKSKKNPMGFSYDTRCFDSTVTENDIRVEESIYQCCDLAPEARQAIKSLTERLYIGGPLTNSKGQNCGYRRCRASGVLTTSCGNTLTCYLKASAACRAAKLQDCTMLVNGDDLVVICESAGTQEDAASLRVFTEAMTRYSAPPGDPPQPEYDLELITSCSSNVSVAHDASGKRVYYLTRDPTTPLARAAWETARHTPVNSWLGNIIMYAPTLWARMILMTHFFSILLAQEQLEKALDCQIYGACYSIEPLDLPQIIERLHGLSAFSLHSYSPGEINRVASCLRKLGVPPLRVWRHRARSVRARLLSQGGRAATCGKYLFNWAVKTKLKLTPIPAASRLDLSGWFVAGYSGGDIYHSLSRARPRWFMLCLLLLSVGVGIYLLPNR

Row | SMILES | IC50 [µM]
1 | CC(C)(NC(=O)OCC1c2ccccc2-c2ccccc21)C(=O)Nc1ccc(C=CC(=O)O)cc1 [Compound 39, 3-{4-[2-((9H-FLUOREN-9-YLMETHOXYCARBONYL)AMINO)-2-METHYL-PROPIONYLAMINO]-PHENYL}-ACRYLIC ACID] | > 50
2 | Cc1ccc(NC(=O)C(CCCCN)NC(=O)Nc2cccc3ccccc23)cc1 [Compound 71, (S)-6-AMINO-2-(3-NAPHTHALEN-1-YL-UREIDO)-HEXANOIC ACID P-TOLYLAMIDE] | > 50
3 | Cc1ccc(NC(=O)[C@H](CCCCN)NS(=O)(=O)c2cccc3ccccc23)cc1 [Compound 68, (S)-6-AMINO-2-(NAPHTHALENE-1-SULFONYLAMINO)-HEXANOIC ACID P-TOLYLAMIDE] | > 50
4 | Cc1ccc(NC(=O)C(CCCCN)NC(=O)c2ccc(F)c3ccccc23)cc1 [Compound 64, (S)-4-FLUORO-NAPHTHALENE-1-CARBOXYLIC ACID (5-AMINO-1-P-TOLYLCARBAMOYL-PENTYL)-AMIDE] | > 50
5 | O=C(Nc1ccc(C2CCCCC2)cc1)C1CNCCN1C(=O)OCC1c2ccccc2-c2ccccc21 (racemic) [Compound 156, (+/−)-2-(4-CYCLOHEXYL-PHENYLCARBAMOYL)-PIPERAZINE-1-CARBOXYLIC ACID 9H-FLUOREN-9-YLMETHYL ESTER] | > 50
6 | CCCCNC(=O)[C@H](CCCCN)NC(=O)Nc1ccc(OCc2ccccc2)cc1 [Compound 258, (S)-6-AMINO-2-[3-(4-BENZYLOXY-PHENYL)-UREIDO]-HEXANOIC ACID BUTYLAMIDE] | > 50
7 | NC(Cc1ccccc1)C(=O)Nc1ccc(CN(C(=O)c2ccco2)C2CCCCC2)cc1 (stereo in doubt) [Compound 11, (R)-FURAN-2-CARBOXYLIC ACID [4-(2-AMINO-3-PHENYL-PROPIONYLAMINO)-BENZYL]-CYCLOHEXYL-AMIDE] | > 50
8 | Cc1cc2cc(NC(=O)[C@H](CCCNC(=O)CN)NC(=O)Nc3ccc(OCc4ccccc4)cc3)ccc2[nH]1 [Compound 296, (S)-5-(2-AMINO-ACETYLAMINO)-2-[3-(4-BENZYLOXY-PHENYL)-UREIDO]-PENTANOIC ACID (2-METHYL-1H-INDOL-5-YL)-AMIDE] | 10 to 50
9 | Cc1ccc(NC(=O)C(CCCCN)NC(=O)c2ccc3c4c(cccc24)CC3)cc1 [Compound 67, (S)-ACENAPHTHENE-5-CARBOXYLIC ACID (5-AMINO-1-P-TOLYLCARBAMOYL-PENTYL)-AMIDE] | > 50
10 | Cc1ccc(NC(=O)[C@H](CCCCN)NC(=O)CNCCc2ccccc2)cc1 [Compound 334, (S)-6-AMINO-2-(2-PHENETHYLAMINO-ACETYLAMINO)-HEXANOIC ACID P-TOLYLAMIDE] | > 50
11 | O=C(CC1CNCCN1C(=O)OCC1c2ccccc2-c2ccccc21)Nc1ccc(C2CCCCC2)cc1 (centres unmarked) [Compound 155, 2-[(4-CYCLOHEXYL-PHENYLCARBAMOYL)-METHYL]-PIPERAZINE-1-CARBOXYLIC ACID 9H-FLUOREN-9-YLMETHYL ESTER] | 10 to 50
12 | Cc1ccccc1NC(=O)C(CCCCN)NC(=O)OCC1c2ccccc2-c2ccccc21 [Compound 45, (S)-(5-AMINO-1-O-TOLYLCARBAMOYL-PENTYL)-CARBAMIC ACID 9H-FLUOREN-9-YLMETHYL ESTER] | > 50
13 | Cc1ccc(NC(=O)[C@H](CCCCN)NC(=O)Nc2ccc(OCc3ccc(F)cc3)cc2)cc1 [Compound 250, (S)-6-AMINO-2-{3-[4-(4-FLUORO-BENZYLOXY)-PHENYL]-UREIDO}-HEXANOIC ACID P-TOLYLAMIDE] | 10 to 50
14 | Cc1ccc(NC(=O)[C@H](CCCN)NC(=O)Nc2ccc3c(c2)Cc2ccccc2-3)cc1 [Compound 190, (S)-5-AMINO-2-[3-(9H-FLUOREN-2-YL)-UREIDO]-PENTANOIC ACID P-TOLYLAMIDE] | < 10
15 | NCCCC[C@H](NC(=O)OCC1c2ccccc2-c2ccccc21)C(=O)Nc1cccc(F)c1 [Compound 80, (S)-[5-AMINO-1-(3-FLUORO-PHENYLCARBAMOYL)-PENTYL]-CARBAMIC ACID 9H-FLUOREN-9-YLMETHYL ESTER] | > 50
16 | NCCCC[C@H](NC(=O)Nc1ccc(OCc2ccccc2)cc1)C(=O)Nc1ccc2c(c1)CCC2 [Compound 283, (S)-6-AMINO-2-[3-(4-BENZYLOXY-PHENYL)-UREIDO]-HEXANOIC ACID INDAN-5-YLAMIDE] | 10 to 50
17 | Cc1ccc(NC(=O)NC(CCCCN)C(=O)Nc2ccc(C)cc2)cc1 [Compound 135, (S)-6-AMINO-2-(3-P-TOLYL-UREIDO)-HEXANOIC ACID P-TOLYLAMIDE] | > 50
18 | Cc1ccc(NC(=O)[C@H](CCCCN)NC(=O)Nc2ccc(OCc3ccccn3)cc2)cc1 [Compound 299, (S)-6-AMINO-2-{3-[4-(PYRIDIN-2-YLMETHOXY)-PHENYL]-UREIDO}-HEXANOIC ACID P-TOLYLAMIDE] | 10 to 50
19 | NCCCC[C@H](NC(=O)Nc1ccc(OCc2ccccc2)cc1)C(=O)N1CCOCC1 [Compound 318, (S)-l -[5-AMINO-1-(MORPHOLINE-4-CARBONYL)-PENTYL]-3-(4-BENZYLOXY-PHENYL)-UREA] | 10 to 50
20 | Cc1ccc(NC(=O)C(CCCCN)NS(=O)(=O)c2ccc(-c3ccccc3)cc2)cc1 [Compound 70, (S)-6-AMINO-2-(BIPHENYL-4-SULFONYLAMINO)-HEXANOIC ACID P-TOLYLAMIDE] | > 50
21 | Cc1ccc(NC(=O)[C@H](CCCCN)NC(=O)COc2ccc(I)cc2)cc1 [Compound 327, (S)-6-AMINO-2-[2-(4-IODO-PHENOXY)-ACETYLAMINO]-HEXANOIC ACID P-TOLYLAMIDE] | > 50
22 | CSCCC(NC(=O)OCC1c2ccccc2-c2ccccc21)C(=O)Nc1ccc(C)cc1 (centres unmarked) [Compound 383] | > 50
23 | NCCCC[C@H](NC(=O)Nc1ccc(OCc2ccccc2)cc1)C(=O)NC1CCCC1 [Compound 255, (S)-6-AMINO-2-[3-(4-BENZYLOXY-PHENYL)-UREIDO]-HEXANOIC ACID CYCLOPENTYLAMIDE] | 10 to 50
24 | Cc1ccc(NC(=O)[C@@H](CCCCN)NC(=O)OCC2c3ccccc3-c3ccccc32)cc1 [Compound 20, (S)-(5-AMINO-1-P-TOLYLCARBAMOYL-PENTYL)-CARBAMIC ACID 9H-FLUOREN-9-YLMETHYL ESTER] | 10 to 50
25 | Cc1ccc(NC(=O)[C@H](CCCCN)NC(=O)Nc2ccc(OCc3ccccc3F)cc2)cc1 [Compound 248, (S)-6-AMINO-2-{3-[4-(2-FLUORO-BENZYLOXY)-PHENYL]-UREIDO}-HEXANOIC ACID P-TOLYLAMIDE] | 10 to 50
26 | Cc1cc2cc(NC(=O)[C@H](Cc3ccc(CN)cc3)NC(=O)Nc3ccc(OCc4ccccc4)cc3)ccc2[nH]1 [Compound 227, (S)-3-(4-AMINOMETHYL-PHENYL)-2-[3-(4-BENZYLOXY-PHENYL)-UREIDO]-N-(2-METHYL-1H-INDOL-5-YL)-PROPIONAMIDE] | < 10
27 | Cc1ccc(NC(=O)C(CNC(=O)CN)NC(=O)OCC2c3ccccc3-c3ccccc32)cc1 [Compound 115, (S)-[2-(2-AMINO-ACETYLAMINO)-1-P-TOLYLCARBAMOYL-ETHYL]-CARBAMIC ACID 9H-FLUOREN-9-YLMETHYL ESTER] | 10 to 50
28 | NCc1ccc(NC(=O)[C@@H](NC(=O)OCC2c3ccccc3-c3ccccc32)c2ccccc2)cc1 [Compound 315, (S)-[(4-AMINOMETHYL-PHENYLCARBAMOYL)-PHENYL-METHYL]-CARBAMIC ACID 9H-FLUOREN-9-YLMETHYL ESTER] | 10 to 50
29 | Cc1ccc(NC(=O)[C@@H](CCCCN)NC(=O)NCc2ccc(Cl)c(Cl)c2)cc1 [Compound 170, (R)-6-AMINO-2-[3-(3,4-DICHLORO-BENZYL)-UREIDO]-HEXANOIC ACID P-TOLYLAMIDE] | > 50

— patent US20070021434A1, “NON-NUCLEOSIDE ANTI-HEPACIVIRUS AGENTS AND USES THEREOF” (Migenix Inc., priority 2005, published 2007)
